Test results published in PubChem BioAssay (NCI).
Where “and” joins values, the source holds several entries; their conditions need not be identical. Equal values may be shown once.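 Briefly, cells in 96-well plates were exposed to five compound concentrations for 48 h, and endpoints were estimated by linear interpolation. GI50 is the concentration that inhibits growth by half. TGI: concentration producing complete growth inhibition.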

Legend:
Test in all cases: inhibition of tumour cell growth, NCI panel, 48 h; in the data active = GI50 below about 0.43 µM; inactive = the rest
IGROV1 ovarian = test system: IGROV1 ovarian
NCI-H460 lung = test system: NCI-H460 lung
MDA-MB-435 = test system: MDA-MB-435
786-0 renal = test system: 786-0 renal
SNB-19 CNS = test system: SNB-19 CNS
COLO 205 colon = test system: COLO 205 colon
MDA-MB-231 breast = test system: MDA-MB-231 breast
UACC-257 melanoma = test system: UACC-257 melanoma
UO-31 renal = test system: UO-31 renal
SK-OV-3 ovarian = test system: SK-OV-3 ovarian
HOP-62 NSCLC = test system: HOP-62 NSCLC
CCRF-CEM leukemia = test system: CCRF-CEM leukemia
KM12 colon = test system: KM12 colon
HCC-2998 colon = test system: HCC-2998 colon
SF-295 CNS = test system: SF-295 CNS
DU-145 prostate = test system: DU-145 prostate
OVCAR-8 ovarian = test system: OVCAR-8 ovarian
U251 CNS = test system: U251 CNS
HT29 colon = test system: HT29 colon
OVCAR-5 ovarian = test system: OVCAR-5 ovarian
RXF 393 renal = test system: RXF 393 renal
T-47D breast = test system: T-47D breast
SW-620 colon = test system: SW-620 colon
MDA-N = test system: MDA-N
CAKI-1 renal = test system: CAKI-1 renal
HS 578T breast = test system: HS 578T breast
OVCAR-3 ovarian = test system: OVCAR-3 ovarian
HCT-116 colon = test system: HCT-116 colon
RPMI-8226 leukemia = test system: RPMI-8226 leukemia
BT-549 breast = test system: BT-549 breast
A549 NSCLC = test system: A549 NSCLC
HL-60(TB) leukemia = test system: HL-60(TB) leukemia
MCF7 breast = test system: MCF7 breast
ACHN renal = test system: ACHN renal
SF-539 CNS = test system: SF-539 CNS
SK-MEL-5 melanoma = test system: SK-MEL-5 melanoma
NCI-H226 lung = test system: NCI-H226 lung
SN12C renal = test system: SN12C renal
UACC-62 melanoma = test system: UACC-62 melanoma
OVCAR-4 ovarian = test system: OVCAR-4 ovarian
A498 renal = test system: A498 renal
NCI-H23 lung = test system: NCI-H23 lung
HCT-15 colon = test system: HCT-15 colon
PC-3 prostate = test system: PC-3 prostate
EKVX NSCLC = test system: EKVX NSCLC
HOP-92 NSCLC = test system: HOP-92 NSCLC
SF-268 CNS = test system: SF-268 CNS
LOX IMVI melanoma = test system: LOX IMVI melanoma
K-562 leukemia = test system: K-562 leukemia
TK-10 renal = test system: TK-10 renal
SK-MEL-2 melanoma = test system: SK-MEL-2 melanoma
NCI-H522 lung = test system: NCI-H522 lung
MOLT-4 leukemia = test system: MOLT-4 leukemia
MALME-3M melanoma = test system: MALME-3M melanoma
M14 melanoma = test system: M14 melanoma
NCI/ADR-RES ovarian = test system: NCI/ADR-RES ovarian
SK-MEL-28 melanoma = test system: SK-MEL-28 melanoma

CCCNC1=C2CC(C)CC(OC)[C@@H](O)[C@H](C)/C=C(\C)C(OC(N)=O)C(OC)/C=C\C=C(/C)C(=O)NC(=CC1=O)C2=O (stereo partly specified)
28.5 µM: TGI (MCF7 breast)
42.2 µM: TGI (RPMI-8226 leukemia)
65.5 µM: TGI (DU-145 prostate)
> 100 µM: TGI (786-0 renal) | TGI (SNB-19 CNS) | TGI (SK-OV-3 ovarian) | TGI (U251 CNS) | TGI (SW-620 colon) | TGI (CAKI-1 renal) | TGI (HCT-116 colon) | TGI (OVCAR-4 ovarian) | TGI (PC-3 prostate) | TGI (K-562 leukemia) | TGI (TK-10 renal)
28.7 µM: TGI (SN12C renal)
13.5 µM: TGI (MOLT-4 leukemia)
41.6 µM: TGI (IGROV1 ovarian)
9.55 µM: TGI (A498 renal)
0.614 µM: TGI (LOX IMVI melanoma)
29.4 µM: TGI (NCI-H460 lung)
35 µM: TGI (T-47D breast)
28.1 µM: TGI (HCT-15 colon)
10.9 µM: TGI (HT29 colon)
28.6 µM: TGI (NCI-H522 lung)
91.4 µM: TGI (ACHN renal)
41.9 µM: TGI (UACC-62 melanoma)
2.34 µM and 0.547 µM: TGI (HL-60(TB) leukemia)
17.1 µM: TGI (MDA-N)
12.7 µM: TGI (COLO 205 colon)
32.2 µM: TGI (UO-31 renal)
active: GI50 (NCI-H460 lung) 0.0541 µM | GI50 (MDA-MB-435) 0.0903 µM | GI50 (COLO 205 colon) 0.0141 µM | GI50 (UACC-257 melanoma) 0.318 µM | GI50 (SK-OV-3 ovarian) 0.0747 µM | GI50 (CCRF-CEM leukemia) 0.309 µM | GI50 (KM12 colon) 0.0239 µM | GI50 (HCC-2998 colon) 0.359 µM | GI50 (OVCAR-8 ovarian) 0.393 µM | GI50 (SW-620 colon) 0.0606 µM | GI50 (MDA-N) 0.0757 µM | GI50 (HCT-116 colon) 0.0589 µM | GI50 (MCF7 breast) 0.0525 µM | GI50 (SF-539 CNS) 0.402 µM | GI50 (SK-MEL-5 melanoma) 0.0343 µM | GI50 (NCI-H226 lung) 0.244 µM | GI50 (SN12C renal) 0.235 µM | GI50 (UACC-62 melanoma) 0.253 µM | GI50 (NCI-H23 lung) 0.0639 µM | GI50 (SF-268 CNS) 0.134 µM | GI50 (LOX IMVI melanoma) 0.0466 µM | GI50 (NCI-H522 lung) 0.361 µM
32.5 µM: TGI (OVCAR-8 ovarian)
84.4 µM: TGI (EKVX NSCLC)
36.8 µM: TGI (HS 578T breast)
7.47 µM: TGI (MDA-MB-231 breast)
28.8 µM: TGI (MDA-MB-435) | TGI (OVCAR-3 ovarian)
3.23 µM and 13.1 µM: TGI (HCC-2998 colon)
31.4 µM: TGI (SK-MEL-2 melanoma)
36.4 µM: TGI (UACC-257 melanoma)
44.4 µM: TGI (HOP-62 NSCLC)
18.3 µM: TGI (SF-539 CNS) | TGI (SK-MEL-5 melanoma)
42.1 µM: TGI (BT-549 breast)
27.9 µM: TGI (A549 NSCLC)
48.7 µM: TGI (RXF 393 renal)
inactive: GI50 (MDA-MB-231 breast) 3.36 µM | GI50 (UO-31 renal) 0.558 µM | GI50 (DU-145 prostate) 14.8 µM | GI50 (U251 CNS) 29.5 µM | GI50 (OVCAR-5 ovarian) 13.3 µM | GI50 (RXF 393 renal) 13.8 µM | GI50 (T-47D breast) 1.15 µM | GI50 (HS 578T breast) 0.625 µM | GI50 (OVCAR-3 ovarian) 0.613 µM | GI50 (RPMI-8226 leukemia) 0.463 µM | GI50 (A549 NSCLC) 0.514 µM | GI50 (HCT-15 colon) 0.46 µM | GI50 (PC-3 prostate) 0.477 µM | GI50 (EKVX NSCLC) 16 µM | GI50 (HOP-92 NSCLC) 16.8 µM | GI50 (TK-10 renal) 11.6 µM | GI50 (SK-MEL-2 melanoma) 13.1 µM | GI50 (MOLT-4 leukemia) 0.492 µM
27.1 µM: TGI (SF-268 CNS)
5.21 µM: TGI (NCI-H226 lung)
3.13 µM: TGI (CCRF-CEM leukemia)
0.673 µM and 0.727 µM: TGI (KM12 colon)
23 µM: TGI (NCI-H23 lung)
19.9 µM: TGI (SF-295 CNS)

CCc1ccc(CCN2CCCCC2)nc1
> 100 µM: TGI (IGROV1 ovarian) | TGI (MALME-3M melanoma) | TGI (M14 melanoma) | TGI (NCI-H460 lung) | TGI (MDA-MB-435) | TGI (786-0 renal) | TGI (SNB-19 CNS) | TGI (COLO 205 colon) | TGI (MDA-MB-231 breast) | TGI (UACC-257 melanoma) | TGI (NCI/ADR-RES ovarian) | TGI (UO-31 renal) | TGI (SK-OV-3 ovarian) | TGI (HOP-62 NSCLC) | TGI (CCRF-CEM leukemia) | TGI (KM12 colon) | TGI (HCC-2998 colon) | TGI (SF-295 CNS) | TGI (DU-145 prostate) | TGI (OVCAR-8 ovarian) | TGI (U251 CNS) | TGI (HT29 colon) | TGI (OVCAR-5 ovarian) | TGI (RXF 393 renal) | TGI (T-47D breast) | TGI (SW-620 colon) | TGI (MDA-N) | TGI (CAKI-1 renal) | TGI (HS 578T breast) | TGI (OVCAR-3 ovarian) | TGI (HCT-116 colon) | TGI (RPMI-8226 leukemia) | TGI (BT-549 breast) | TGI (A549 NSCLC) | TGI (MCF7 breast) | TGI (ACHN renal) | TGI (SK-MEL-5 melanoma) | TGI (NCI-H226 lung) | TGI (SN12C renal) | TGI (UACC-62 melanoma) | TGI (SK-MEL-28 melanoma) | TGI (OVCAR-4 ovarian) | TGI (A498 renal) | TGI (NCI-H23 lung) | TGI (HCT-15 colon) | TGI (PC-3 prostate) | TGI (EKVX NSCLC) | TGI (HOP-92 NSCLC) | TGI (SF-268 CNS) | TGI (LOX IMVI melanoma) | TGI (K-562 leukemia) | TGI (TK-10 renal) | TGI (SK-MEL-2 melanoma) | TGI (NCI-H522 lung) | TGI (MOLT-4 leukemia)
